Data: patent US9403833B2, “Carboxamide derivatives” (Novartis AG, priority 2014, dated 2016)
pIC50: −log10 of the molar value.

molecular target: Smurf-1 (Homo sapiens (Human), UniProt Q9HCE7); test: HECT E3 ligase autoubiquitinylation TR-FRET assay (Smurf-1); type: biochemical; conditions: 8-point dose-response, 3 nM to 10 uM, 45 min incubation
From the text: To determine the HECT E3 ligase selectivity of the compounds, a panel of biochemical HECT E3 ligase autoubiquitinylation assays was employed (Smurf-1, Smurf-2, WWP1, WWP2, ITCH, Nedd4, Nedd4L and E6AP). The conjugation of ubiquitin to a protein substrate is a multistep process. In an initial ATP-requiring step, a thioester bond is formed between the carboxyl terminus of ubiquitin and an internal cystein residue of the ubiquitin-activating enzyme (E1). Activated ubiquitin is then transferred to a specific cystein residue of an ubiquitin-conjugating enzyme (E2). E2s donate ubiquitin to a HECT E3 ligase (E3) from which it is transferred to the substrate protein. HECT E3 ligases can auto-ubiquitinylate. This event is detected in the TR-FRET (Time-Resolved Fluorescence Resonance Energy Transfer) assay used in this panel. The reaction mix contains E1, E2, tagged-E3, biotin-conjugated ubiquitin, the compound and ATP in a suitable buffer and is incubated for 45 minutes to allow auto-ubiquitinylation of the E3 ligase. To measure the extent of ubiquitinylated E3 ligase by TR-FRET, the donor fluorophore Europium cryptate (Eu3+ cryptate), conjugated to streptavidin which subsequently binds to biotinylated ubiquitin, and the modified allophycocyanin XL665 (HTRF® primary acceptor fluorophore) coupled to a tag-specific antibody (HA, His or GST), which recognizes the respective E3 ligase fusion proteins, are added after the reaction is complete. When these two fluorophores are brought together by a biomolecular interaction (in this case ubiquitinylation of the E3 ligase), a portion of the energy captured by the Cryptate during excitation is released through fluorescence emission at 620 nm, while the remaining energy is transferred to XL665. This energy is then released by XL665 as specific fluorescence at 665 nm. Light at 665 nm is emitted only through FRET with Europium.
Test and reference compounds are prepared at 180× [final] in 90% DMSO, and diluted 1:3 in 90% DMSO.
For the biochemical assay panel, 50 nl of the test compounds, reference compounds and buffer/DMSO control are transferred to the respective wells of a 384-well white GREINER “SMALL VOLUME” PS plate. The assay panel is run at room temperature on a Biomek FX liquid handling workstation. To the assay plates containing 50 nl compound or control solutions in 90% DMSO, 4.5 ul of E3 ligase solution were added per well, followed by 4.5 ul of the pre-incubated E1/E2/Ub mix or the pre-diluted ubiquitin (LOW control). Plates are shaken vigorously after each addition. In this assay the compound concentrations range from 3 nM to 10 uM in an 8-point dose-response curve.
After 45 min of incubation the ubiquitinylation reactions were stopped by adding 4.5 ul 2 mM NEM, immediately followed by 4.5 ul of a detection solution including the XL665-labeled antibody and the streptavidin-coupled europium to give a total volume of 18 ul. After an incubation time of 45 min in the dark, the plates are transferred into the Pherastar fluorescence reader to measure the TR-FRET signal.

Smurf-1, sequence (Q9HCE7 whole entry): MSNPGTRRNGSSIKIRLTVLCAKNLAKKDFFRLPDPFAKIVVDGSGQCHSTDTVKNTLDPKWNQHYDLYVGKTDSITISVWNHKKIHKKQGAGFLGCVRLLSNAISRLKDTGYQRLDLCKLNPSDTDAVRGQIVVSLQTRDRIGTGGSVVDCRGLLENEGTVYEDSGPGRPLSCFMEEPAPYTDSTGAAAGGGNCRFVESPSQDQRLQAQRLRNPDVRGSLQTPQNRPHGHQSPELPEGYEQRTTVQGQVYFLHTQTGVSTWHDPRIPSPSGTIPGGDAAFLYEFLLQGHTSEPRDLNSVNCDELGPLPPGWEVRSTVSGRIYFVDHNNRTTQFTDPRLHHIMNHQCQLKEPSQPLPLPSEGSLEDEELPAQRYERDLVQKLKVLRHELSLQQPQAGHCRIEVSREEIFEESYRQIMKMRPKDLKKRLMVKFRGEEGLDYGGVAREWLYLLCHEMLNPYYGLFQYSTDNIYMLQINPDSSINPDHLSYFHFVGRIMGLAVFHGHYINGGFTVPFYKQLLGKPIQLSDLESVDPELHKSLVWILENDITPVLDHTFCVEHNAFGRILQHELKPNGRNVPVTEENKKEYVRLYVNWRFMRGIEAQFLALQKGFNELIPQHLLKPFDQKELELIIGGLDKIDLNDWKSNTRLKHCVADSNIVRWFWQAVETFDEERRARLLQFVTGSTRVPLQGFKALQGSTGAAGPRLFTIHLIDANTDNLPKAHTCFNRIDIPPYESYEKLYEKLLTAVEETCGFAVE

pIC50	Structure (SMILES)
6.24	Cc1c(C(=O)Nc2c(C)n(C)n(C3CCCCC3)c2=O)nnn1-c1ccc(Cl)cc1Cl [Example 2, N-(2-Cyclohexyl-1,5-dimethyl-3-oxo-2,3-dihydro-1H-pyrazol-4-yl)-1-(2,4-dichlorophenyl)-5-methyl-1H-1,2,3-triazole-4-carboxamide]
6.00	Cc1c(C(=O)Nc2c(C)n(C)n(-c3ccccc3F)c2=O)nnn1-c1ccc(C2CC2)cc1Cl [Example 11, 1-(2-Chloro-4-cyclopropylphenyl)-N-(2-(2-fluorophenyl)-1,5-dimethyl-3-oxo-2,3-dihydro-1H-pyrazol-4-yl)-5-methyl-1H-1,2,3-triazole-4-carboxamide]
5.55	Cc1c(C(=O)Nc2c(C)n(C)n(-c3ccccc3F)c2=O)nnn1-c1ccc(Cl)cc1 [Example 8, 1-(4-Chlorophenyl)-N-(2-(2-fluorophenyl)-1,5-dimethyl-3-oxo-2,3-dihydro-1H-pyrazol-4-yl)-5-methyl-1H-1,2,3-triazole-4-carboxamide]
5.48	Cc1c(C(=O)Nc2c(C)n(C)n(-c3ccccc3F)c2=O)nnn1-c1ccc(Cl)cc1C1CC1 [Example 13, 1-(4-Chloro-2-cyclopropylphenyl)-N-(2-(2-fluorophenyl)-1,5-dimethyl-3-oxo-2,3-dihydro-1H-pyrazol-4-yl)-5-methyl-1H-1,2,3-triazole-4-carboxamide]
5.36	Cc1c(C(=O)Nc2c(C)n(C)n(-c3ccccc3F)c2=O)nnn1-c1ccc(OC(F)(F)F)cc1Cl [Example 9, 1-(2-Chloro-4-(trifluoromethoxy)phenyl)-N-(2-(2-fluorophenyl)-1,5-dimethyl-3-oxo-2,3-dihydro-1H-pyrazol-4-yl)-5-methyl-1H-1,2,3-triazole-4-carboxamide]
5.24	Cc1c(C(=O)Nc2c(C)n(C)n(-c3ccccc3F)c2=O)nnn1-c1ccc(Cl)cc1Cl [Example 7, 1-(2,4-Dichlorophenyl)-N-(2-(2-fluorophenyl)-1,5-dimethyl-3-oxo-2,3-dihydro-1H-pyrazol-4-yl)-5-methyl-1H-1,2,3-triazole-4-carboxamide]

Further lines, the compound ahead of its results:

Structure (SMILES)	pIC50
COc1ccc(-n2nnc(C(=O)Nc3c(C)n(C)n(C4CCCCC4)c3=O)c2C)c(Cl)c1 [Example 1, 1-(2-Chloro-4-methoxyphenyl)-N-(2-cyclohexyl-1,5-dimethyl-3-oxo-2,3-dihydro-1H-pyrazol-4-yl)-5-methyl-1H-1,2,3-triazole-4-carboxamide]	6.36
[2H]C([2H])([2H])n1c(C)c(NC(=O)c2nnn(-c3ccc(C4CC4)cc3Cl)c2C)c(=O)n1C1CCCCC1 [Example 12, 1-(2-Chloro-4-cyclopropylphenyl)-N-(2-cyclohexyl-1-methyl-d3,5-methyl-3-oxo-2,3-dihydro-1H-pyrazol-4-yl)-5-methyl-1H-1,2,3-triazole-4-carboxamide]	7.01
Cc1c(C(=O)Nc2c(C)n(C)n(C3CCCCC3)c2=O)nnn1-c1ccc(C2CC2)cc1Cl [Example 10, 1-(2-Chloro-4-cyclopropylphenyl)-N-(2-cyclohexyl-1,5-dimethyl-3-oxo-2,3-dihydro-1H-pyrazol-4-yl)-5-methyl-1H-1,2,3-triazole-4-carboxamide]	7.04
Cc1c(C(=O)Nc2c(C)n(C)n(C3CCCCC3)c2=O)nnn1-c1ccc(Cl)cc1C1CC1 [Example 14, 1-(4-Chloro-2-cyclopropylphenyl)-N-(2-cyclohexyl-1,5-dimethyl-3-oxo-2,3-dihydro-1H-pyrazol-4-yl)-5-methyl-1H-1,2,3-triazole-4-carboxamide]	6.64
Cc1c(C(=O)Nc2c(C)n(C)n(C3CCCCC3)c2=O)nnn1-c1ccc(F)cc1C1CC1 [Example 15, N-(2-Cyclohexyl-1,5-dimethyl-3-oxo-2,3-dihydro-1H-pyrazol-4-yl)-1-(2-cyclopropyl-4-fluorophenyl)-5-methyl-1H-1,2,3-triazole-4-carboxamide]	5.35
Cc1c(C(=O)Nc2c(C)n(C)n(C3CCCCC3)c2=O)nnn1-c1ccc(OC(F)(F)F)cc1Cl [Example 5, 1-(2-Chloro-4-(trifluoromethoxy)phenyl)-N-(2-cyclohexyl-1,5-dimethyl-3-oxo-2,3-dihydro-1H-pyrazol-4-yl)-5-methyl-1H-1,2,3-triazole-4-carboxamide]	6.26
COc1ccc(-n2nnc(C(=O)Nc3c(C)n(C)n(C4CCCCC4)c3=O)c2C)cc1 [Example 17, N-(2-Cyclohexyl-1,5-dimethyl-3-oxo-2,3-dihydro-1H-pyrazol-4-yl)-1-(4-methoxyphenyl)-5-methyl-1H-1,2,3-triazole-4-carboxamide]	5.51
COc1ccc(-n2nnc(C(=O)Nc3c(C)n(C)n(C4CCCCC4)c3=O)c2C)c(C(F)(F)F)c1 [Example 3, N-(2-Cyclohexyl-1,5-dimethyl-3-oxo-2,3-dihydro-1H-pyrazol-4-yl)-1-(4-methoxy-2-(trifluoromethyl)phenyl)-5-methyl-1H-1,2,3-triazole-4-carboxamide]	6.05
Cc1c(NC(=O)c2nnn3c2CCCc2cc(OC(F)(F)F)ccc2-3)c(=O)n(C2CCCCC2)n1C [Example 16, N-(2-Cyclohexyl-1,5-dimethyl-3-oxo-2,3-dihydro-1H-pyrazol-4-yl)-8-(trifluoromethoxy)-5,6-dihydro-4H-benzo[f][1,2,3]triazolo[1,5-a]azepine-3-carboxamide]	7.26
Cc1c(C(=O)Nc2c(C)n(C)n(C3CCCCC3)c2=O)nnn1-c1ccc(Cl)cc1 [Example 6, 1-(4-Chlorophenyl)-N-(2-cyclohexyl-1,5-dimethyl-3-oxo-2,3-dihydro-1H-pyrazol-4-yl)-5-methyl-1H-1,2,3-triazole-4-carboxamide]	5.09
